Assays:
TbrCatL = biological target: T1, TbrCatL (Trypanosoma brucei rhodesiense, UniProt Q95PM0); test: TbrCatL enzymatic inhibition assay (cleavage of fluorogenic substrate Z-FR-AMC); type: biochemical; settings: for TbrCatL 0’ Inhibition / TbrCatL 10’ Inhibition: sheet "Screening results"
T1 construct: Conor Caffrey (University of California San Diego)
Experimental: (§1) Allison Doak and Prof. Brian Shoichet (University of California San Francisco, San Francisco, CA, USA) and Prof. Conor Caffrey (University of California San Diego, San Diego, CA, USA) generously provided recombinant cruzain and TbrCatL, respectively. In vitro activity of proteases cruzain and TbrCatL was assayed as previously described. Briefly, enzyme activity was measured by monitoring the cleavage of the fluorogenic substrate […] (Z-FR-AMC) at 25 °C. Fluorescence was monitored at 340/440 nm (excitation/emission) over 5–7 min in a Synergy2 Biotek plate reader. […] DMSO and 1 μM E-64 were employed as negative and positive controls, respectively, in all assays. Two conditions were employed for both enzymes: 10′ pre-incubation of the enzyme in the presence of the compound (10′ inc) and no pre-incubation (0′). Reported values correspond to the mean and standard error of the mean (SEM) and all analyses were performed using GraphPad Prism 6.0.
(§2) For the initial screening, compounds were assayed at 5 μM. […] IC50 curves were obtained from a non-linear fit of at least seven distinct compound concentrations, in triplicate. Reported IC50 values are the mean and SEM of two independent measurements.

cruzain = cruzain (Trypanosoma cruzi, UniProt P25779); test: biochemical; settings: for Cruzain 0’ Inhibition / Cruzain 10’ Inhibition: sheet "Screening results"
Chain of cruzain (P25779 123-337 limits assumed): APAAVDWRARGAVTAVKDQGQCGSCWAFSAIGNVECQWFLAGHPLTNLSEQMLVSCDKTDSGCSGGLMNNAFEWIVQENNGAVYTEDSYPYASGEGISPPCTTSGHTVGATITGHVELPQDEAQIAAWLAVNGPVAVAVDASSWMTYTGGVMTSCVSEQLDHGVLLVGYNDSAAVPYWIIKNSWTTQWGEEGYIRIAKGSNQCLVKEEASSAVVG
Experimental: as §1, §2

[1] = 0’ (no pre-incubation), sheet Screening results
[2] = 10’ (pre-incubation), sheet Screening results
[3] = 0’ (pre-incubation time), Pathogen Box screening results
[4] = 10’ (pre-incubation time), Pathogen Box screening results
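Further: at 5 µM compound concentration.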

T1 sequence (Q95PM0 entry or part of it): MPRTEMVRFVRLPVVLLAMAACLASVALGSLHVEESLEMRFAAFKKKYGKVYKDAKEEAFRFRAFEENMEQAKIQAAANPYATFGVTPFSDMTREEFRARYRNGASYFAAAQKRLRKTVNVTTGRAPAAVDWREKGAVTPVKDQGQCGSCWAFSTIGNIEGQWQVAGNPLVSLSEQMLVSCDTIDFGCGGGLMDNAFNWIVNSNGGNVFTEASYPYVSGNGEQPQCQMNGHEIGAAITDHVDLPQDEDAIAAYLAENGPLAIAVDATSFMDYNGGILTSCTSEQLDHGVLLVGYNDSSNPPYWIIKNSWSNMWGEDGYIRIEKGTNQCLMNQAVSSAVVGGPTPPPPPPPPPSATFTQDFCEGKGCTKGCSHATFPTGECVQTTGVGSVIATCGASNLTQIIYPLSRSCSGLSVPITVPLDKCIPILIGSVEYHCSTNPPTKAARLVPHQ

Structure (SMILES)	TbrCatL 0’ Inhibition (TbrCatL; 0’ (pre-incubation time)) [%]	TbrCatL 10’ Inhibition (TbrCatL; 10’ (pre-incubation time)) [%]	Cruzain 0’ Inhibition (cruzain; 0’ (pre-incubation time)) [%]	Cruzain 10’ Inhibition (cruzain; 10’ (pre-incubation time)) [%]	further results
CN1CCC(NCc2cccc(-c3ccc(S(=O)(=O)NCc4ccccc4)cc3)c2)CC1 [MMV022029]	-8	14	-2.3	29	–
CCN(CC)CCCN1CCN(C(=O)c2cccc(-c3noc(C(F)(F)F)n3)c2)CC1 [MMV022236]	7.4	16	7	16	–
O=C(Nc1ccc(N2CCNCC2)cc1)c1ccn2ncc(-c3cccc(Cl)c3)c2n1 [MMV022478]	1.7	10	15	18	–
c1ccc2c(c1)CN(CC1CC1)CC1(CCN(Cc3c[nH]c4cnccc34)CC1)O2 [MMV023183]	6	1.8	3.5	15	–
Cc1nc(-c2cccc(NCc3ccccc3)c2)[nH]c1C [MMV023227]	-7	22	2	15	–
Nc1nccc2ccc(-c3ccc4nccn4c3)cc12 [MMV023233]	0.7	7	11	8	–
Nc1ncc(-c2cn[nH]c2)cc1-c1nc2cc(Cl)cnc2[nH]1 [MMV023370]	3.3	-1.5	-3.5	8	–
O=C(NC1CCN(c2ccnc3ccccc23)C1)c1cccc(C(F)(F)F)c1 (centres unmarked) [MMV023388]	10	13	8	14	–
NS(=O)(=O)c1cccc(-c2ccc3ncc(N4CCOCC4)nc3c2)c1 [MMV023860]	-1.3	14	-5.3	28	–
CC(C)(C)c1cc(C(=O)N2CCN(c3nccnc3C#N)CC2)n(Cc2ccccc2)n1 [MMV023949]	12	-3	-0.2	6	–
O=C(Nc1cccc(-c2ccc(NCCCN3CCCC3)nc2)c1)c1ccccc1 [MMV023953]	12	7	8	11	–
c1cncc(NCc2ccc(-c3cc4ccncc4cc3OC3CCNCC3)s2)c1 [MMV023969]	19	17	29	31	–
COc1ccc(-c2cnc3ccc(N4CCCC4)nn23)cc1OC [MMV023985]	-7	-1	-3.2	-13	–
O=C(Nc1ccccc1)c1ccc(-c2cc3ccncc3cc2OC2CCNCC2)s1 [MMV024035]	-3	-5	5	-6.5	–
NS(=O)(=O)c1cncc(-c2ccc3nccc(-c4cn[nH]c4)c3n2)c1 [MMV024101]	6	34	7	26	–
Cc1ccc(S(=O)(=O)n2cc(-c3ccnc(N)c3)c3cc(Br)cnc32)cc1 [MMV024114]	-5	1.6	-9	15	–
CN(C)CCNC(=O)N1CCCN(c2ncnc3cc(-c4ccccc4)sc23)CC1 [MMV024195]	1.1	-1.4	-3.2	1.9	–
Cc1ccc2[nH]c(C3CCCNC3)c(-c3ccncc3)c2c1 (centres unmarked) [MMV024311]	-12	12	-7.4	15	–
O=C(NC1CC1)c1ccc(N2CCC(Cc3ccccc3)CC2)nc1 [MMV024397]	–	–	–	–	TbrCatL Inhibition 0’ (TbrCatL; [1]): 2.6%; TbrCatL Inhibition 10’ (TbrCatL; [2]): 2.6%; Cruzain Inhibition 0’ (cruzain; [1]): 3%; Cruzain Inhibition 10’ (cruzain; [2]): 6%
O=C(Nc1cccc(Cl)c1)c1cnc(N2CCN(c3ccncc3)CC2)c(Cl)c1 [MMV024406]	3	20	17	25	–
CN(C(=O)c1cc2c(-c3cncnc3)cccc2[nH]1)c1ccccc1 [MMV024443]	-4.6	-3.8	5	2.7	–

Structure (SMILES)	TbrCatL 0’ Inhibition (TbrCatL; 0’ (pre-incubation time)) [%]	TbrCatL 10’ Inhibition (TbrCatL; 10’ (pre-incubation time)) [%]	Cruzain 0’ Inhibition (cruzain; 0’ (pre-incubation time)) [%]	Cruzain 10’ Inhibition (cruzain; 10’ (pre-incubation time)) [%]	further results
Cc1cccc(C(=O)Nc2ccnc(N(C)C3CCN(CC(C)C)CC3)c2)c1 [MMV024829]	4	7	9	7	–
O=C(Nc1ccc(N2CCNCC2)nc1)c1oc(-c2ccccc2)nc1C(F)(F)F [MMV024937]	20	23	5.6	14	–
CS(=O)(=O)c1cccc(-c2cnc3[nH]cc(-c4ccc(CCC(=O)O)cc4)c3c2)c1 [MMV026020]	–	–	–	–	TbrCatL Inhibition 0’ (TbrCatL; [1]): 15%; TbrCatL Inhibition 10’ (TbrCatL; [2]): 20%; Cruzain Inhibition 0’ (cruzain; [1]): 12%; Cruzain Inhibition 10’ (cruzain; [2]): 17%
Nc1nccc2ccc(Oc3ccncc3)cc12 [MMV026313]	–	–	–	–	TbrCatL Inhibition 0’ (TbrCatL; [3]): 0.4%; TbrCatL Inhibition 10’ (TbrCatL; [4]): 19%; Cruzain Inhibition 0’ (cruzain; [3]): -0.8%; Cruzain Inhibition 10’ (cruzain; [4]): 8%
CCn1ncc2c(NC3CCOCC3)c(CNC(=O)c3ccnn3C)c(C)nc21 [MMV026356]	-6	-7	-0.3	1.1	–
OCc1ccc(-c2cncc(Nc3cccc(Cl)c3)c2)cc1 [MMV026468]	1.7	2.7	0	2.8	–
O=C(NCCc1ccccc1)c1cc(-c2cccnc2)cnc1NCC1CC1 [MMV026490]	0.1	-13	-1.3	-5	–
CC(C)(C)CN1C(=O)C(c2ccccc2)(c2ccccc2)N=C1N [MMV026550]	-5	0.2	0	2.8	–
OCCc1ccc(Nc2nccc(-c3nnc4ccccn34)n2)cc1 [MMV028694]	8	13	7	14	–
CC(C)(CN)c1nc(-c2ccc(Cl)c(O)c2)c(-c2ccnc(N)n2)[nH]1 [MMV030734]	7.5	-9.5	5	-5.6	–
CNC(=O)C1Cc2c([nH]c3cc(Cl)ccc23)C2(CCN(CCc3ccccc3)CC2)N1 (centres unmarked) [MMV031011]	-11	-8	-7.5	-0.7	–
FC(F)(F)c1cccc(-c2nc3c(NCc4ccncc4)nccc3[nH]2)c1 [MMV032967]	-7	1.3	-4.6	-2.4	–
O=C1COCc2ccc(Br)cc2N1Cc1ccc(C(F)(F)F)cc1 [MMV032995]	-7	-7	-5	0.2	–
c1ccc(Oc2ccc(-c3cc(N4CCOCC4)n[nH]3)cc2)cc1 [MMV045105]	2	22	1.3	29	–
COc1cc(C(F)(F)F)nc2ccc(C)c(N)c12 [MMV047015]	15	4	1.1	5.5	–
N#Cc1ccc(-c2ccc(OCC(N)=O)cc2)cc1 [MMV053220]	–	–	–	–	TbrCatL Inhibition 0’ (TbrCatL; [1]): -5.7%; TbrCatL Inhibition 10’ (TbrCatL; [2]): -7%; Cruzain Inhibition 0’ (cruzain; [1]): -9%; Cruzain Inhibition 10’ (cruzain; [2]): -5%
CC(=O)N1CCc2cc3nc(C)cc(C)c3cc21 [MMV054312]	–	–	–	–	TbrCatL Inhibition 0’ (TbrCatL; [1]): 9%; TbrCatL Inhibition 10’ (TbrCatL; [2]): 19%; Cruzain Inhibition 0’ (cruzain; [1]): 10%; Cruzain Inhibition 10’ (cruzain; [2]): 11%
Cc1cc(C)nc(-n2nc(C)cc2Nc2ccccc2)n1 [MMV062221]	-32	-72	-21	-3	–
Cc1nn(Cc2ccccc2)c(Cl)c1C(=O)NC1CCCCCC1 [MMV063404]	–	–	–	–	TbrCatL Inhibition 0’ (TbrCatL; [1]): 7.6%; TbrCatL Inhibition 10’ (TbrCatL; [2]): 2%; Cruzain Inhibition 0’ (cruzain; [1]): 11%; Cruzain Inhibition 10’ (cruzain; [2]): 7.6%
FC(F)(F)c1nnc2ccc(Cl)nn12 [MMV069458]	–	–	–	–	TbrCatL Inhibition 0’ (TbrCatL; [1]): 4%; TbrCatL Inhibition 10’ (TbrCatL; [2]): 0%; Cruzain Inhibition 0’ (cruzain; [1]): 2%; Cruzain Inhibition 10’ (cruzain; [2]): -4%

— article PMC9967275, “Screening the Pathogen Box to Discover and Characterize New Cruzain and TbrCatL Inhibitors” (Pathogens, 2023)
